In patent publication US20200390729A1, “OPHTHALMIC TOPICAL COMPOSITION COMPRISING DOBESILIC ACID FOR TREATING DISEASES OF THE POSTERIOR SEGMENT OF THE EYE” (LABORATORIOS SALVAT, S.A., priority 2017, published 2020):
Where two headings read alike, the source gives them in different places.

Legend:
[1] = Ocular tolerability of CDO in rats, clinical eye evaluation; format: in vivo, Diabetic SD male rats; details: CDO 100 mg/ml administered topically
Protocol: Diabetic SD male rats were treated with CDO compositions 2 and 5 of Example 1 for 28 days three times a day (topical instillation of 10 μl/eye). Clinical evaluation of the eye appearance was performed thorough the study.

[2] = Ocular distribution of etamsylate following topical ocular single dose in rats; format: in vivo, Sprague Dawley (SD) rat; details: Sprague-Dawley, rat
Protocol: (§1) Bioanalysis of CDO was performed depending on the type of matrix. In the case of plasma, proteins were precipitated using methanol. In the case of tissues, samples were grinded in a Mini Bead Beater using zirconium beads and methanol/water (1:1) (v/v) as solvent. After centrifugation, samples were analyzed by UPLC-MS/MS.
(§2) Chromatographic separation was carried out using an Acquity CSH Fluoro Phenyl column (1.7 μm, 50×2.1 mm). Mobile phase consisted of a gradient using 0.1% formic acid in water and acetonitrile from 5% to 45% in 4.5 min at a flow rate of 0.6 ml/min.
(§3) With regard to the mass spectrometric detection, the electrospray ionization source worked to record negative ions. Multiple Reaction Monitoring (MRM) acquisition mode of the deprotonated molecular ions was performed. The transition monitored for CDO was m/z 189.0→80.1 with a cone voltage of 45 V and collision energy of 25 eV.
At 15, 60 and 180 minutes post-administration, animals were euthanized and ocular tissues including retina, and optic nerve were collected.
As described in Example 2.

TNF-α mRNA = experiment: Anti-inflammatory activity: relative TNF-α mRNA in retinas, streptozotocin diabetic retinopathy model; format: in vivo, SD male rats; details: diabetic rats, CDO 10 mg/ml topical 10 μl/eye TID 28 days
Protocol: Diabetes was induced in SD male rats by single intraperitoneal injection of streptozotocin (STZ) at 60 mg/kg body weight in citrate buffer (pH 4.5). Seven days after STZ administration, blood glucose was measured and the level of 250 mg/dl was considered the threshold value to consider diabetes induction. Ophthalmic treatment with CDO at 10 mg/ml (topical instillation of 10 μl/eye) was initiated once hyperglycemia was confirmed and continued for 28 days three times a day (TID). Rats were randomly divided in 3 groups: I. Control (non-diabetic), II. Diabetic rats with no treatment and III. Diabetic rats with CDO at 10 mg/ml. […]
RNA was isolated from each retina by using the commercial kit SV Total RNA Isolation System (Promega) and stored at −80° C. until use. Relative mRNA levels were quantified using a MX3000 (Stratagene) quantitative PCR system. […]
The qPCR system detects the fluorescence emitted by SYBR, its increase corresponds to exponential increase of the PCR product. The software calculates the threshold cycle (Ct), in which the fluorescence exceeds the background signal. Relative changes in gene expression were calculated using the ΔCt method. […] Relative expression of mRNA in the test samples were determined as fold increase compared with the control sample (non-diabetic).

[3] = Ocular distribution of CDO in rabbits, single dose topical ocular vs. oral; format: in vivo, New Zealand White rabbit; details: for concentration at 0.25 h / concentration at 1 h / concentration at 3 h / concentration at 6 h: New Zealand White
Protocol: In New Zealand White rabbit, weighing approximately 1.8 kg, CDO was administered by topical ocular instillation (33 μl/eye) at 10 mg/ml (composition 2 of Example 1), at 100 mg/ml (composition 5 of Example 1) or by oral gavage at 25 mg/kg in aqueous solution (from composition 1 of Example 1). At 15, 60, 180 and 360 minutes post-administration, animals were euthanized and plasma and ocular tissues including retina/choroid and optic nerve were collected.
as §1, §2, §3

[4] = tested on: egg chorioallantoic membrane (CAM); experiment: Ocular irritation assay (HET-CAM); parameters: species or system White Leghorn chicken eggs; details: 100 mg/ml, CAM observed for 5 minutes
Description: The HET-CAM is an alternative method to the Draize Rabbit Eye Test which mimics vascular changes in the chorioallantoic membrane, an analog for ocular conjunctiva, which can be used to determine the potential irritancy of a test substance. This method is based on that described in Hen's Egg Test-Chorioallantoic Membrane (HET-CAM) Test Method (ICCVAM-Recommended Test Method Protocol, NIH Publication No. 10-7553—Published 2010)
Fertilized white SPF (special pathogen free) White Leghorn chicken eggs were incubated at 37° C. and 60% humidity up to day 10. After determination of the viability of the embryo, a rectangular window was removed from the shell directly over the air cell and the egg membrane was carefully moistened with 2-3 ml 0.9% saline. After returning to the incubator for 30 minutes, the inner membrane was removed and the test substance was applied to the CAM membrane with a pipette. Eggs were observed continuously for 5 minutes for the appearance of lysis, hemorrhage and/or coagulation and an irritation score (IS) was determined following the ICCVAM-Recommended Test Method Protocol (NIH Publication No. 10-7553-Published 2010) guideline.

[5] = optic nerve, 0.126 mg, read-out: CDO μg/g tissue Optic nerve
[6] = optic nerve, 1.26 mg, read-out: CDO μg/g tissue Optic nerve
[7] = retina, 0.126 mg, read-out: CDO μg/g tissue Retina
[8] = retina, 1.26 mg, read-out: CDO μg/g tissue Retina
[9] = optic nerve, rabbit, Oral 25 mg/Kg = 45 mg, read-out: CDO μg/g tissue Optic nerve
[10] = optic nerve, rabbit, Topical eye administration 10 mg/ml = 0.3 mg, read-out: CDO μg/g tissue Optic nerve
[11] = optic nerve, rabbit, Topical eye administration 100 mg/ml = 3.3 mg, read-out: CDO μg/g tissue Optic nerve
[12] = retina/choroid, rabbit, Oral 25 mg/Kg = 45 mg, read-out: CDO μg/g tissue Retina/Choroid
[13] = retina/choroid, rabbit, Topical eye administration 10 mg/ml = 0.3 mg, read-out: CDO μg/g tissue Retina/Choroid
[14] = retina/choroid, rabbit, Topical eye administration 100 mg/ml = 3.3 mg, read-out: CDO μg/g tissue Retina/Choroid

## O=S(=O)(O)c1cc(O)ccc1O [CDO, Calcium dobesilate monohydrate]
[1]
  tolerance after topical administration: good tolerance
[2]; [5]
  concentration at 0.25 h: 36.5 µg/g
  concentration at 1 h: 8.13 µg/g
  concentration at 3 h: 2.32 µg/g
[2]; [6]
  concentration at 0.25 h: 25.2 µg/g
  concentration at 1 h: 15.8 µg/g
  concentration at 3 h: 2.67 µg/g
[2]; [7]
  concentration at 0.25 h: 4.39 µg/g
  concentration at 1 h: 3.48 µg/g
  concentration at 3 h: 0.27 µg/g
[2]; [8]
  concentration at 0.25 h: 4.05 µg/g
  concentration at 1 h: 2.42 µg/g
  concentration at 3 h: 1.56 µg/g
TNF-α mRNA
  TNF-α mRNA expression of treated group vs control group (non-diabetic): slightly lower than the control group
[3]; [9]
  concentration at 0.25 h: 0.74 µg/g
  concentration at 1 h: 1.61 µg/g
  concentration at 3 h: 0.49 µg/g
  concentration at 6 h: 0.1 µg/g
[3]; [10]
  concentration at 0.25 h: 0.23 µg/g
  concentration at 1 h: 0.76 µg/g
  concentration at 3 h: 0.65 µg/g
  concentration at 6 h: 0.45 µg/g
[3]; [11]
  concentration at 0.25 h: 14.4 µg/g
  concentration at 1 h: 22.9 µg/g
  concentration at 3 h: 4.5 µg/g
  concentration at 6 h: 1.92 µg/g
[3]; [12]
  concentration at 0.25 h: 0.43 µg/g
  concentration at 1 h: 0.95 µg/g
  concentration at 3 h: 0.28 µg/g
  concentration at 6 h: 0.12 µg/g
[3]; [13]
  concentration at 0.25 h: 0.27 µg/g
  concentration at 1 h: 0.29 µg/g
  concentration at 3 h: 0.16 µg/g
  concentration at 6 h: 0.11 µg/g
[3]; [14]
  concentration at 0.25 h: 7.88 µg/g
  concentration at 1 h: 6.41 µg/g
  concentration at 3 h: 3.47 µg/g
  concentration at 6 h: 1.14 µg/g
[3]; rabbit, 6 hours after topical ocular administration
  CDO amounts in target tissues (optic nerve and retina choroids) 6 hours after topical ocular administration: could be detected
[3]; rabbits, topical eye single low dose 0.3 mg vs oral 45 mg
  values of CDO in target tissues, topical vs. single oral dose: equivalent to those of a single oral dose (45 mg)
[3]; rabbits, topical single dose CDO 3.3 mg vs single oral dose
  levels of the drug in target tissues, topical vs. single oral dose: higher levels of the drug are detected than those obtained following a single oral dose
[4]
  HET-CAM irritation characterization: not irritating
  HET-CAM lysis, haemorrhage or coagulation processes: did not trigger any lysis, haemorrhage or coagulation processes
